Reference: publication PMC6397705 (Molecular cancer therapeutics, 2019)

Tests used:
[1] = tested on: PP2A; details: cited from earlier work
[2] = molecular target: T1, PP2AC (Bos taurus, UniProt P67774); assay: Phosphopeptide; assay type: biochemical, bovine
[3] = tested on: HEK-293 cells; assay: Western analysis of ribosomal S6; assay type: cell-based, human; details: wild-type HEK-293 cells, 0–2 μM, 3 hours
[4] = molecular target: T1, PP2AC; assay: DiFMUP-based phosphatase inhibition assay; assay type: biochemical, bovine
[5] = molecular target: T2, PPP5C (Homo sapiens, UniProt P53041); assay: [32P]-phosphohistone phosphatase assay; assay type: biochemical
[6] = molecular target: T2, PPP5C; assay: Phosphopeptide; assay type: biochemical
[7] = in vitro; assay type: cell-based; details: human, EC50, cytotoxicity in U-937 cells, 72 hours, n=16
[8] = molecular target: T1, PP2AC; assay: [32P]-phosphohistone phosphatase assay; assay type: biochemical, bovine
[9] = tested on: PP2AC versus PPP5C; assay: Selectivity over the three substrate assays; assay type: biochemical; details: with all three substrates
[10] = tested on: PPP1C/PPP2AC/PPP5C/ PPP6C; details: cited from earlier work
[11] = tested on: solid tumor patients; details: of 46 solid tumor patients, Phase I; cited from earlier work

T1 sequence (P67774 whole entry): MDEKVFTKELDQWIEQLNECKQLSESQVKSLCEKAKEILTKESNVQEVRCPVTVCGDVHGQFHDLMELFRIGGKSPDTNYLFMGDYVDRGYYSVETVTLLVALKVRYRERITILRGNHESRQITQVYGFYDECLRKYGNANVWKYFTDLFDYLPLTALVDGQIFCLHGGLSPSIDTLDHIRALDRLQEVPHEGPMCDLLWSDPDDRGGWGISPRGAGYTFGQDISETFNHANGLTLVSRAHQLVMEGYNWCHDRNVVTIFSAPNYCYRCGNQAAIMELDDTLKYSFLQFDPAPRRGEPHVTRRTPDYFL
T2 sequence (P53041 whole entry): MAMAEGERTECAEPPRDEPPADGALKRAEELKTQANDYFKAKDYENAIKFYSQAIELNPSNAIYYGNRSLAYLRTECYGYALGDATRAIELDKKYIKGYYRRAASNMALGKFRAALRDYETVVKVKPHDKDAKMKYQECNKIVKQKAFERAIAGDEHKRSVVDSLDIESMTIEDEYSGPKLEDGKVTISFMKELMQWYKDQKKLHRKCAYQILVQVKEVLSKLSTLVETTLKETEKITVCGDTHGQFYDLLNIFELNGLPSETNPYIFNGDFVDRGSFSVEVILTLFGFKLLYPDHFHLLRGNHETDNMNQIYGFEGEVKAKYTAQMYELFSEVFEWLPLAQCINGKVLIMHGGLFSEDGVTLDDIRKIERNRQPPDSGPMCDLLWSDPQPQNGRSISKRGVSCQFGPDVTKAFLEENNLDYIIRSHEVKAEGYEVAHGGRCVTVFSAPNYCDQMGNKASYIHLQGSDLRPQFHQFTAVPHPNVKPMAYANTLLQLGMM

Question: With “4-(3-carboxy-7-oxa-bicyclo [2.2.1] heptane-2-carbonyl)piperazine-1-carboxylic acid tert- butyl ester [LB-102]” as the molecule, how does the “selectivity for PP2A” value [1] read?
Answer: The value was > 10,000 fold.

Question: Which IC50 [2] does the source give for `CN1CCN(C(=O)C2C3CCC(O3)C2C(=O)O)CC1` (centres unmarked) [LB-100, 3-(4-methylpiperazine-1-carbonyl)-7-oxabicyclo[2.2.1]heptane-2-carboxylic acid] here?
Answer: The IC50 was 1270 nM.

Question: What about the “phosphorylation of ribosomal protein S6 (Ser235/236)” value [3] of the same molecule?
Answer: The value was “induced in the wild-type HEK-293 cells by LB-100 in a dose-dependent manner”.

Question: What about the IC50 [4] of the same molecule?
Answer: The IC50 was 390 nM.

Question: What about the IC50 [5] of the same molecule?
Answer: The IC50 was 4.9 µM.

Question: What about the IC50 [6] of the same molecule?
Answer: The IC50 was 6.64 µM.

Question: And the EC50 ([7]; LB-100 alone)?
Answer: Its EC50 is 11.7 µM.

Question: What about the EC50 ([7]; LB-100 and 500 nM dexamethasone) of the same molecule?
Answer: Its EC50 is 5.48 µM.

Question: And the IC50 [8]?
Answer: Its IC50 is 640 nM.

Question: What about the “selectivity for PP2AC versus PPP5C” value [9] of the same molecule?
Answer: Its value is 4–7 fold.

Question: Which IC50 [10] does the source give for nodularin here?
Answer: Its IC50 is < 2 nM.

Question: For `C[C@@]12C(=O)OC(=O)[C@]1(C)[C@H]1CC[C@@H]2O1` [cantharidin], which “affinity for ser/thr phosphatases 1, 2A, 5, and 6” value ([10]; catalytic inhibitor) is on record?
Answer: The value was “submicromolar to low micromolar”.

Question: Which IC50 [10] does the source give for Microcystin here?
Answer: Its IC50 is < 2 nM.

Question: For `C[C@@](O)(/C=C/[C@H]1CC=CC(=O)O1)[C@@H](C[C@@H](O)\C=C/C=C\C=C\CO)OP(=O)(O)O` [fostriecin], which “disease stability, number of patients” value [11] is on record?
Answer: The value was 16.
